Tests used:
Assay in all cases: Test B pre-/postemergence plant response
Format in all cases: in vivo
[1] = tested on: johnsongrass (Sorghum halepense)
How it was run: (§1)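 Visually scored on a 0 to 100 scale after 13 to 15 days in greenhouse versus controls. Treatments were preemergence on seeded loam/sand soil and postemergence on 1- to 4-leaf plants.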

[2] = tested on: soybean (Glycine max)
How it was run: as §1

[3] = tested on: velvetleaf (Abutilon theophrasti)
How it was run: as §1

[4] = tested on: Surinam grass (Brachiaria decumbens)
How it was run: as §1

[5] = tested on: woolly cupgrass (Eriochloa villosa)
How it was run: as §1

[6] = tested on: ragweed (common ragweed, Ambrosia elatior)
How it was run: as §1

[7] = tested on: downy bromegrass (Bromus tectorum)
How it was run: as §1

[8] = tested on: Italian ryegrass (Lolium multiflorum)
How it was run: as §1

[9] = tested on: corn (Zea mays)
How it was run: as §1

[10] = tested on: pigweed (Amaranthus retroflexus)
How it was run: as §1

[11] = tested on: blackgrass (Alopecurus myosuroides)
How it was run: as §1

[12] = tested on: giant foxtail (Setaria faberii)
How it was run: as §1

[13] = tested on: kochia (Kochia scoparia); conditions: Postemergence; for Plant response rating, Kochia: scale 0 (no effect) to 100 (complete control)
How it was run: as §1

[14] = 250 g ai/ha, Preemergence, 0 to 100 scale
[15] = Postemergence, 62 g ai/ha, scale 0 (no effect) to 100 (complete control), 13 to 15 days
[16] = Postemergence, 125 g ai/ha, visual rating after 13 to 15 days, scale 0 (no effect) to 100 (complete control)
[17] = Postemergence, 250 g ai/ha, scale 0 to 100
[18] = Preemergence, 31 g ai/ha, scale 0 to 100 (0 no effect, 100 complete control)
[19] = Preemergence, 62 g ai/ha, scale 0 to 100 (0 no effect, 100 complete control)
[20] = Preemergence, 125 g ai/ha, 0 to 100 scale
[21] = Postemergence, 31 g ai/ha, scale 0 to 100 (0 no effect, 100 complete control)

Cc1ccccc1-n1c(-c2cccc(Cl)c2)ncc(C(=O)C2=C(O)CCCC2=O)c1=O [Compound 36]
98: Plant response rating, Soybean [2, 15] | Cupgrass, Woolly plant response rating [5, 17] | Plant response rating, Foxtail, Giant [12, 16] | Foxtail, Giant plant response rating [12, 17]
25: Plant response rating, Blackgrass [11, 14] | Plant response rating, Blackgrass [11, 19] | Blackgrass plant response rating [11, 20]
30: Plant response rating, Bromegrass, Downy [7, 21] | Plant response rating, Bromegrass, Downy [7, 15]
65: Plant response rating, Johnsongrass [1, 19] | Plant response rating, Velvetleaf [3, 18] | Plant response rating, Cupgrass, Woolly [5, 14] | Bromegrass, Downy plant response rating [7, 17] | Plant response rating, Corn [9, 16] | Foxtail, Giant plant response rating [12, 20] | Kochia plant response rating ([13]; 250 g ai/ha, scale 0 to 100)
10: Cupgrass, Woolly plant response rating [5, 20] | Plant response rating, Bromegrass, Downy [7, 14] | Plant response rating, Ryegrass, Italian [8, 16] | Plant response rating, Foxtail, Giant [12, 18]
70: Plant response rating, Surinam Grass [4, 18]
75: Plant response rating, Johnsongrass [1, 15]
50: Plant response rating, Corn [9, 21]
95: Plant response rating, Cupgrass, Woolly [5, 16] | Plant response rating, Ragweed [6, 16] | Plant response rating, Foxtail, Giant [12, 21] | Plant response rating, Foxtail, Giant [12, 15]
60: Plant response rating, Kochia ([13]; 125 g ai/ha, visual rating after 13 to 15 days)
35: Plant response rating, Ragweed [6, 18]
100: Johnsongrass plant response rating [1, 17] | Plant response rating, Soybean [2, 16] | Plant response rating, Velvetleaf [3, 14] | Plant response rating, Velvetleaf [3, 15] | Plant response rating, Velvetleaf [3, 16] | Velvetleaf plant response rating [3, 20] | Plant response rating, Surinam Grass [4, 14] | Surinam Grass plant response rating [4, 20] | Plant response rating, Pigweed [10, 14] | Plant response rating, Pigweed [10, 18] | Pigweed plant response rating [10, 20]
20: Plant response rating, Blackgrass [11, 18] | Plant response rating, Foxtail, Giant [12, 19]
90: Plant response rating, Cupgrass, Woolly [5, 15] | Plant response rating, Ragweed [6, 14] | Plant response rating, Ragweed [6, 15] | Plant response rating, Pigweed [10, 16]
55: Plant response rating, Corn [9, 15]
85: Plant response rating, Johnsongrass [1, 14] | Plant response rating, Johnsongrass [1, 16] | Plant response rating, Surinam Grass [4, 15] | Plant response rating, Surinam Grass [4, 16] | Plant response rating, Cupgrass, Woolly [5, 21] | Ragweed plant response rating [6, 20] | Corn plant response rating [9, 17] | Plant response rating, Pigweed [10, 15]
5: Plant response rating, Ryegrass, Italian [8, 15] | Plant response rating, Blackgrass [11, 21] | Plant response rating, Blackgrass [11, 15]
15: Plant response rating, Blackgrass [11, 16] | Blackgrass plant response rating [11, 17]
0: Plant response rating, Johnsongrass [1, 18] | Plant response rating, Soybean [2, 18] | Soybean plant response rating [2, 20] | Plant response rating, Cupgrass, Woolly [5, 18] | Plant response rating, Cupgrass, Woolly [5, 19] | Plant response rating, Bromegrass, Downy [7, 18] | Plant response rating, Bromegrass, Downy [7, 19] | Bromegrass, Downy plant response rating [7, 20] | Plant response rating, Ryegrass, Italian [8, 14] | Plant response rating, Ryegrass, Italian [8, 18] | Ryegrass, Italian plant response rating [8, 20] | Plant response rating, Corn [9, 14] | Plant response rating, Corn [9, 18] | Plant response rating, Corn [9, 19] | Corn plant response rating [9, 20] | Plant response rating, Kochia ([13]; 62 g ai/ha, 13 to 15 days)
40: Plant response rating, Soybean [2, 14]
80: Johnsongrass plant response rating [1, 20] | Plant response rating, Foxtail, Giant [12, 14]
45: Plant response rating, Bromegrass, Downy [7, 16]

Source: patent US8952024B2, “Herbicidal pyrimidone derivatives” (E I du Pont de Nemours and Company, priority 2009, dated 2015)
